# From patent US5843887A, “Compositions for delivery of polypeptides, and methods” (Allied Medical Research Associates, priority 1994, dated 1998)
# Legend:
# [1] = pH of 8, in the presence of trypsin; cited from earlier work
# serum glucose = assay: IF and insulin injected into the sutured duodenal cavity of mice, serum glucose; format: in vivo; conditions: 50 mg IF and 4 I.U. insulin, decreases up until death, depending on the dose
# Protocol: 10 g IF (dosage of 300 Units per mg; one unit will bind one nanogram of vitamin B12) was added to 1 liter of 0.02M phosphate buffered solution and stirred up to 37° C. […] The solution (with a prefered pH of about 6) was stirred at a temperature of 37° C. for 24 hours. The product was then dialysed at 4° C. and dehydrated by lyophilization.
# [2] = doses of 100 to 500 μg, as in pernicious anemia; cited from earlier work
# blood glucose level = assay: oral administration of IF and/or porcine insulin to mice, blood glucose level; format: in vivo; conditions: administered orally (summary statement)
# Protocol: The IF was substantially free of R-protein and prepared as in Example 1. […] Blood glucose level was measured with a blood glucose meter standard model Tracer (Boehringer) and produced the following results.
substance,measurement,setting,value
"IF: glycoprotein with a molecular weight of 50 kDa, 351 amino acids, binds cobalamin",affinity for cobalamin relative to that of R protein,[1],150 times
"Insulin alone: human biogenetic insulin (Novo Nordisk) of Example 1, injected alone",change in serum glucose,serum glucose,did not cause a fall in serum glucose
cyanocobalamin,fraction of dose absorbed (passive absorption),[2],1%
insulin,change in serum glucose after oral administration,blood glucose level,no change in serum glucose
